Measured values taken from patent US11254654B2, “Heterochromatin gene repression inhibitors” (The University of North Carolina at Chapel Hill, priority 2017, dated 2022).
Where a name gives a salt, the structure may show the parent alone.

Tests used:
H3K9me2/3 = assay: Global H3K9me2/3 western blot of acid extracted histones; format: cell-based, mouse; details: 10 μM compound, 48 hours
Protocol: CiA:Oct4 N118/N163 cells were grown to confluency as described above in standard gelatin coated 6 well tissue culture plates. Media was aspirated and the cells were washed with 2 mL of PBS. The PBS was removed and the cells were trypsinized with 0.25% trypsin-EDTA until a single cell suspension was generated. Cells were transferred to a conical tube and pelleted at 300×g for 5 min. Supernatant was removed and the cells were washed with PBS and centrifuged at 300×g for 5 min. The PBS supernatant was removed. Nuclei were collected from the cells by resuspending the pellet in lysis buffer containing (50 mM HEPES pH 8.0, 140 mM NaCl, 1 mM EDTA, 10% glycerol, 0.5% NP40, 0.25% Triton X100). Cells were incubated in lysis buffer on ice for 10 min. Nuclei were pelleted at 1200×g for 5 min at 4° C. and the supernatant was removed. […]
SDS-PAGE sample gels were transferred to Millipore Immobilon-FL PVDF membranes either by semi-wet or wet transfer according to Bio-Rad procedure. […] Western blot membranes were imaged using the Licor Odyssey scanner and data analyzed using Image Studio v5.2 software.
HP1 gene repression and silencing is mediated by H3K9me3 deposition. […] Total extracted histone proteins were quantified by Bradford Coomassie and equal total protein was loaded per sample for gel electrophoresis and subsequent western blot analysis. […]

csHP1γ = csHP1γ inhibition assay, CiA:Oct4 N118/N192 cells; format: cell-based, mouse; details: 5 μM, 48 hrs, + 6 nM rapamycin
Protocol: Day 0, CiA:Oct4 N118/N192 cells were grown and cultured in 96 well plate format with 10,000 cells seeded per well. Day 1, media was aspirated and replaced with fresh ES media containing 5 μM of top screen compounds and +/−6 nM rapamycin. Day 2, media was aspirated and replaced with fresh ES media containing 5 μM of top screen compounds and +/−6 nM rapamycin. Day 3, wells were aspirated and washed with PBS prior to sample preparation and analysis by flow cytometry.
After 48-hrs of 5 μM compound treatment with and without rapamycin, the % GFP (+) populations were determined by flow cytometry analysis.
Flow cytometry analysis was used to determine the % GFP (+) population. Data was converted to % inhibition for the +rapamycin samples. Experiments were performed in biological triplicate. (n≥3) (p≤0.05*, 0.01**).

G9a = molecular target: T1, G9a (Homo sapiens, UniProt Q96KQ7); assay: In vitro activity against G9a; format: biochemical; details: data not shown
T1 sequence (Q96KQ7 1-1210): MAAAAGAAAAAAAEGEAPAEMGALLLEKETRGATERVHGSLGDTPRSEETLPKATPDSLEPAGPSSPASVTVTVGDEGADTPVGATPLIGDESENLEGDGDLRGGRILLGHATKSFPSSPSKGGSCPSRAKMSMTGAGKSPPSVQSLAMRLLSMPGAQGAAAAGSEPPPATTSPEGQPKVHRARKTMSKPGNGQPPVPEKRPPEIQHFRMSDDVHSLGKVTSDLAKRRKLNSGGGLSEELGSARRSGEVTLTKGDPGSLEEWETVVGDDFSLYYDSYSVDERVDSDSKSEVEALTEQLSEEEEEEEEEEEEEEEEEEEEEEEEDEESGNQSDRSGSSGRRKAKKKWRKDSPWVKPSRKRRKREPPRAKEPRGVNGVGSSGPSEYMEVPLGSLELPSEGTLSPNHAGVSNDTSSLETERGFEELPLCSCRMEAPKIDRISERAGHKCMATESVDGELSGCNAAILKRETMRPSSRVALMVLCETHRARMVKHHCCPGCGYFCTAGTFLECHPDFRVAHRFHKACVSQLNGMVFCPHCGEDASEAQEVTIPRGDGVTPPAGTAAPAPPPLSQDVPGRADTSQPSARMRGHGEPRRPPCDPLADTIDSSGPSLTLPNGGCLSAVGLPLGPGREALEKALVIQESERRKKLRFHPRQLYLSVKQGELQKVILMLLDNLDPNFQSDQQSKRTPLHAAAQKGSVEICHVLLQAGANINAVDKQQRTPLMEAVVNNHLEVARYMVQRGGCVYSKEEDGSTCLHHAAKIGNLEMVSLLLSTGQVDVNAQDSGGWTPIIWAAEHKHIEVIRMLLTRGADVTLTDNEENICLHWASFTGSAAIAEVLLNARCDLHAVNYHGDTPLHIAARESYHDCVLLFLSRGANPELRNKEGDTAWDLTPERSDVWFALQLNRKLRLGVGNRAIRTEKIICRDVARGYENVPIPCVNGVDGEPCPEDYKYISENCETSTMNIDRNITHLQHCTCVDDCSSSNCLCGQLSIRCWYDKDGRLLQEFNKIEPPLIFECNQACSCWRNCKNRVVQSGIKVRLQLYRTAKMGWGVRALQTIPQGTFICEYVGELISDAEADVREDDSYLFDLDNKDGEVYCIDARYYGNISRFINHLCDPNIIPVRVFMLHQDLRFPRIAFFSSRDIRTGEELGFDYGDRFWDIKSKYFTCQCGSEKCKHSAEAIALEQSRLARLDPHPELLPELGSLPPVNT

In the case of `COc1cc2nc(N3CCCC3)nc(N[C@H]3CCCNC3)c2cc1OC` [compound 1, (S)-6,7-Dimethoxy-N-(Piperidin-3-yl)-2-(Pyrrolidin-1-yl)Quinazolin-4-Amine Trifluoroacetic Acid Salt], the “Global H3K9me2/3 levels normalized to histone H4” value (H3K9me2/3) is reported as “roughly equivalent decreases in H3K9 methylation”, the “Inhibition of csHP1γ-mediated repression of CiA:Oct4 locus” value (csHP1γ) is reported as “most potent inhibitors of csHP1γ” and the “Activity against G9a in vitro” value (G9a) is reported as “no detectable activity”.
